Tested on: BT-474 cancer cells
Test: Inhibition of BT-474 cell proliferation (CellTiter-Glo)
Format: cell-based
Details: Homo sapiens, BT-474 cells, 120 hours
Description: BT-474 cancer cells were cultured by using RPMI-1640 medium containing 20% FBS. The BT-474 cancer cells were seeded to a white clear bottom 96 well plate (Corning) at 5,000 cells per well 48 hours before the BT-474 cancer cells were treated with Example Compounds. Example Compounds were diluted in dimethylsulfoxide (3-fold diluted, total 11 concentrations) and 1 μL each was injected so that the final concentration was 0.2 nM to 10 μM. For the measurement of living cells, the cells were stored at room temperature for 10 minutes using the CellTiter-Glo cell viability reagent (Promega) after a predetermined time (120 hours) after the treatment of Example Compounds, and then the luminescence intensity was measured using a reader (SynergyNeo, Biotek). Each test was repeated three times.
The result value was calculated as a cell growth rate (%) compared to a control group. Graphs were plotted and GI50 values were calculated using the GraphPad Prism version 8.0 program, and the results are shown in Table 18 below.

| SMILES | GI50 [nM] |
| --- | --- |
| COc1cc2ncnc(Nc3cc(C)c(Oc4ccc(C(=O)N(C)C)cc4)cc3OC)c2cc1NC(=O)/C(F)=C\[C@H]1CCCN1C [Example 126, (R,E)-4-(4-((6-(2-fluoro-3-(1-methylpyrrolidin-2-yl)acrylamido)-7-methoxyquinazolin-4-yl)amino)-5-methoxy-2-methylphenoxy)-N,N-dimethylbenzamide] | 100 to 500 |
| COc1cc(Oc2ccn3ncnc3c2)c(C)cc1Nc1ncnc2cc(OC(F)F)c(NC(=O)/C(F)=C\[C@H]3CCCN3C)cc12 [Example 99, (R,E)-N-(4-((4-([1,2,4]triazolo[1,5-a]pyridin-7-yloxy)-2-methoxy-5-methylphenyl)amino)-7-(difluoromethoxy)quinazolin-6-yl)-2-fluoro-3-(1-methylpyrrolidin-2-yl)acrylamide] | ≤ 50 |
| [2H]C([2H])([2H])Oc1cc(Oc2ccn3ncnc3c2)c(F)cc1Nc1ncnc2cc(OC)c(NC(=O)/C(F)=C\[C@H]3CCCN3C)cc12 [Example 152, (R,E)-N-(4-((4-([1,2,4]triazolo[1,5-a]pyridin-7-yloxy)-5-fluoro-2-(methoxy-d3)phenyl)amino)-7-methoxyquinazolin-6-yl)-2-fluoro-3-(1-methylpyrrolidin-2-yl)acrylamide] | ≤ 50 |
| COc1cc2ncnc(Nc3cc(C)c(Oc4ccc5oc(C)nc5c4)cc3OC)c2cc1NC(=O)/C(F)=C/[C@H]1CCCN1C [Example 68, (R,Z)-2-fluoro-N-(7-methoxy-4-((2-methoxy-5-methyl-4-((2-methylbenzo[d]oxazol-5-yl)oxy)phenyl)amino)quinazolin-6-yl)-3-(1-methylpyrrolidin-2-yl)acrylamide] | ≤ 50 |
| COc1cc2ncnc(Nc3cc(C)c(Oc4ccc5c(c4)OCO5)cc3OC)c2cc1NC(=O)/C(F)=C\[C@H]1CCCN1C [Example 85, (R,E)-N-(4-((4-(benzo[d][1,3]dioxol-5-yloxy)-2-methoxy-5-methylphenyl)amino)-7-methoxyquinazolin-6-yl)-2-fluoro-3-(1-methylpyrrolidin-2-yl)acrylamide] | ≤ 50 |
| COc1cc2ncnc(Nc3cc(F)c(Oc4ccc5c(c4)ncn5C)cc3OC)c2cc1NC(=O)/C(F)=C/[C@H]1CCCN1C [Example 61, (R,Z)-2-fluoro-N-(4-((5-fluoro-2-methoxy-4-((1-methyl-1H-benzo[d]imidazol-5-yl)oxy)phenyl)amino)-7-methoxyquinazolin-6-yl)-3-(1-methylpyrrolidin-2-yl)acrylamide] | ≤ 50 |
| C=CC(=O)N1CC(Oc2cc3c(Nc4cc(C)c(Oc5ccn6ncnc6c5)cc4OC)ncnc3cc2OC)C1 [Example 19, 1-(3-((4-((4-([1,2,4]triazolo[1,5-a]pyridin-7-yloxy)-2-methoxy-5-methylphenyl)amino)-7-methoxyquinazolin-6-yl)oxy)azetidin-1-yl)prop-2-en-1-one] | ≤ 50 |
| C=CC(=O)N1CCC(Oc2cc3c(Nc4cc(Cl)c(Oc5cccc(OC)c5)cc4OC)ncnc3cc2OC)CC1 [Example 11, 1-(4-((4-((5-chloro-2-methoxy-4-(3-methoxyphenoxy)phenyl)amino)-7-methoxyquinazolin-6-yl)oxy)piperidin-1-yl)prop-2-en-1-one] | ≤ 50 |
| COc1cc2ncnc(Nc3cc(C)c(Oc4ccc5c(c4)ncn5C)cc3OC)c2cc1NC(=O)/C(F)=C/[C@H]1CCCN1C [Example 56, (R,Z)-2-fluoro-N-(7-methoxy-4-((2-methoxy-5-methyl-4-((1-methyl-1H-benzo[d]imidazol-5-yl)oxy)phenyl)amino)quinazolin-6-yl)-3-(1-methylpyrrolidin-2-yl)acrylamide] | ≤ 50 |
| C=CC(=O)Nc1cc2c(Nc3cc(C)c(Oc4ccn5ncnc5c4)cc3OC)ncnc2cc1N1CCOCC1 [Example 23, N-(4-((4-([1,2,4]triazolo[1,5-a]pyridin-7-yloxy)-2-methoxy-5-methylphenyl)amino)-7-morpholinoquinazolin-6-yl)acrylamide] | > 500 |

— patent US20240383923A1, “HETEROARYL DERIVATIVE AND USE THEREOF” (VORONOI INC., priority 2022, published 2024)
